Reference: patent US7264629B2, “Photodynamic therapy for the treatment of hair loss” (QLT, Inc., priority 2001, dated 2007)

What was measured:
[1] = system: patients; conditions: topical 0.5% HP and UVA three times a week; first week of treatment; two patients; cited from earlier work
[2] = system: alopecia areata patients; conditions: 2% khellin and UVA, cited from earlier work
[3] = system: shaved Balb/C mice; experiment: PDT-induced stimulation of hair growth using topically-applied photosensitizer in shaved Balb/c mice; format: in vivo
Protocol: To prepare QLT 0074-containing ointment, QLT 0074 photosensitizer was dissolved in glacial acetic acid to solubilize it. The solution was then frozen in a dry ice/isopropanol bath and the acetic acid was removed by lyophilization. The resultant material was a fine fluffy powder. […] The ointment base was prepared by first warming polyethylene glycol 200 (PEG 200) to 80-90° C. with stirring. Polyethylene glycol 3350 (PEG 3.35 K) was then added with stirring, followed by oleyl alcohol, and then diethylene glycol monoethyl ether. Stirring was continued until the solution was clear. The ointment base was cooled to approximately 50° C., and the QLT 0074 was added with stirring. Stirring was continued as the mixture cooled, until a homogenous paste was achieved. […]
Female Balb/C mice (8-14 weeks old) were supplied by Charles River Canada (St. Constance, Quebec). […] Mice were randomly assigned to PDT treatment and controlled groups, and were monitored for pain or distress.
Eighteen mice were shaved to remove hair from the back and both flanks. […] QLT 0074-containing ointment was applied to a square spot on the left side of each of mice 1-9 using a square template, with the same quantity of ointment applied to each spot. […]

[4] = system: shaved female Balb/c mice; experiment: Optimization of drug concentration, irradiation dose and light intensity on hair regrowth in shaved mice, topical QLT 0074; format: in vivo; conditions: for hair regrowth at the treatment site: 0.5% ointment
Protocol: A study was performed to assess the effect of drug concentration (0.005, 0.05, or 0.5% QLT 0074 ointment), light dose (50, 100 or 150 J/cm^2 red light) and light intensity 50 or 200 mW/cm) on hair regrowth in shaved female Balb/c mice. Mice received QLT 0074 ointment applied to the skin for 30 minutes, followed by a 15-minute treatment with placebo ointment and exposure to red light (688 nm). One group received no QLT 0074 ointment, only the placebo ointment and light exposure. Preparation of ointments and treatment procedure was as outlined in Example 2, except that different amounts of QLT 0074 were added.
Ointments were prepared as in Example 2, except that different amounts of QLT 0074 (on a weight/weight basis) were incorporated into the ointments. The treatment procedure was as outlined in Example 2.

[5] = system: human males with type II or III Vertex alopecia (AGA); experiment: Stimulation of hair growth in human subjects with AGA (single topical PDT, terminal hair counts); format: in vivo; conditions: 0.2% w/w ointment, 50 and 75 J/cm^2; 10 subjects; during and after treatment
Protocol: A total of 10 subjects were treated. All subjects were human males over 18 years of age and had type II or III Vertex alopecia, rated according to the modified Hamilton-Norwood scale. All subjects received a single application of topical QLT0074 ointment 0.2% weight in weight (w/w) to two of three circular test sites on the vertex area of the scalp. The amount of ointment applied to each test site was approximately 224 mg (about 0.44 mg of photosensitizer per test site). After 2 hours the excess drug was removed and red light (LED's—690 nm) was administered to two of the three sites. The other test site served as a control with no drug or light administration.
Two light dose cohorts (50 and 75 J/cm^2) were investigated with each cohort having 5 subjects.
Safety was assessed by monitoring all adverse events during and after the treatment.
The efficacy was assessed by hair counts 3 months after the treatment and compared to baseline counts.

[6] = system: C3H/HeJ female mice exhibiting hair loss; experiment: Stimulation of hair growth in a mouse model of alopecia areata (topical PDT); format: in vivo; conditions: 0.2% (w/w) ointment
From the text: A disease closely resembling human alopecia areata has been observed in aging (over 6-month old) C3H/HeJ mice (see Sundberg, J. P et al, Alopecia Areata in Aging C3H/HeJ Mice, Journal of Investigative Dermatology 102(6): 847-856 [1994[). […] All other areas outside of the treatment site were left untreated.
Following this treatment, all 3 mice received a dose of 50 J/cm^2 688 nm light delivered at a rate of 50 mw/cm^2 in the 1.5 square area. Mice were monitored for skin photosensitivity reactions on Days 1 and 3 after light exposure and observed for hair re-growth for up to 19 days post-treatment.

In the case of CC1=C(CCC(=O)O)c2cc3[nH]c(cc4nc(cc5[nH]c(cc1n2)c(C)c5C(C)O)C(C)=C4C(C)O)c(C)c3CCC(=O)O (centres unmarked) [hematoporphyrin, Hematoporphyrin], the “skin reactions in treated sites” value [1] is listed as “significant erythema and mild scaling followed by hyperpigmentation”.

For COc1c2occc2c(OC)c2c(=O)cc(C)oc12 [khellin], the phototoxicity [2] is given as “did not cause phototoxicity” and the “number of patients treated successfully” value ([2]; of the 10 patients tested) is given as 5.

In the case of C=Cc1c(C)c2cc3nc(cc4[nH]c(cc5nc(cc1[nH]2)C(C)=C5CCC(=O)OCCO)c(CCC(=O)OCCO)c4C)[C@@]1(C)C3=CC=C(C(=O)OC)[C@H]1C(=O)OC [QLT 0074], the “hair re-growth, representative mouse (FIG. 4)” value ([3]; 17 days after PDT treatment) is reported as “Hair re-growth was observed”, the “number of mice that developed hair growth on the treated area by day 17” value ([3]; out of nine mice, 0.5% w/w ointment 30 min, 688 nm 50 J/cm^2 at 200 mW/cm^2) is reported as “five” and the hair growth ([4]; 0.05% ointment, any light dose) is reported as “did not exhibit hair growth”. For the same molecule, the “hair regrowth at the treatment site” value ([4]; 50, 100 or 150 J/cm^2 at 200 mW/cm^2) was “Hair regrowth at the treatment site was observed”, the “hair regrowth at the treatment site” value ([4]; 50 or 100 J/cm^2 red light at 50 mW/cm^2) was “Hair regrowth at the treatment site was also observed” and the “moderate or severe skin photosensitivity reactions” value ([4]; all drug and light dose combinations) was “no moderate or severe skin photosensitivity reactions were observed”. The “number of animals with hair regrowth at the treatment site” value ([4]; of three animals, 0.005% ointment, 150 J/cm^2 at 200 mW/cm^2) was “one”, the “skin reactions following treatment” value ([4]; some treatments, typically highest drug and light dose combinations) was “Mild skin reactions were evident” and the serious adverse events [5] was “No serious adverse events were reported”. The skin photosensitivity reactions ([6]; 50 J/cm^2 688 nm at 50 mw/cm^2, Days 1 and 3 after light exposure) was “no skin photosensitivity reactions were observed” and the “number of mice with increased amount of hair in the treatment area” value ([6]; of the 3 mice treated, day 7 post-treatment, 50 J/cm^2 688 nm) was 2.
